Reference: patent US5462933A, “Modified bile acid conjugates, and their use as pharmaceuticals” (Hoechst Aktiengesellschaft, priority 1989, dated 1995)

Key:
[1] = In vivo perfused liver: absorption from portal vein blood and excretion into the bile; set-up: species or system rat; conditions: after W (Chlorambucil) into mesenteric vein
Description: In order to investigate a selective absorption of bile acid derivatives into the liver and their hepatotropic action, the appropriate derivatives were injected as a bolus into a mesenteric vein of anesthetized rats and the excretion of these derivatives and the corresponding active compounds or active compound metabolites into the bile was analysed.
Male Sprague-Dawley rats (300-500 g bodyweight) had their food withdrawn and received water ad libitum. After tracheotomy, the abdomen was opened by median section under urethane anesthesia ([…] i.m. urethane 30%). The pylorus was ligated and the bile duct was cannulated by advancing a polyethylene tube (d=0.05 mm) up to the liver and the bile was drained. The volume of secretion was measured at 15 minute intervals. After a preliminary period of 60 minutes, the substances (0.5 ml of a 1 mM solution in 0.9% NaCl solution) were administered into a mesenteric vein in the course of 30 sec and the bile was collected at prestated time intervals (2, 4, 6, 8, 10, 15, 20, 30, 40, 50, 60, 70, 80, 90, 100, 110 and 120 min). The bile acid derivative was administered first, and the appropriate active compound was administered after a collection period of 2 hours. 120 min after administration of test substance, the bladder volume was measured and the urine was also collected. The bile and urine samples were stored on ice during the experiment and then deep-frozen.
Each 10 μl bile sample was applied to TLC plates (10×20 cm, silica gel 60 specific layer thickness 0.25 mm, No. 37581 Riedel de Haen, Seelze, Federal Republic of Germany) using Microcaps (Drummond, Broomall, USA) and the thin-layer plates were dried in the air for 20 min.
The plates were developed in the following mobile phases: Substance Mobile phase
The constituents of the mobile phases were bought from the usual manufacturers in the highest possible purity grade. After developing and drying the plates, the distribution of the active compounds and the bile acid derivatives, or their metabolites, was determined by densitometry (CD 50 densitometer, DESAGA; Heidelberg). Detection was carried out in reflection mode with linear sampling at the wavelengths 252 nm (chlorambucil/chlorambucil conjugate) or 260 nm (remaining substances).
In order to evaluate the chromatograms, the relative intensity of the bile acid derivatives, the active compounds or the active compound metabolites on a chromatogram was given in surface area units.

[2] = biological target: T1, Na+-dependent bile acid transport system (Oryctolagus cuniculus, UniProt Q28727); assay: Inhibition of Na+-dependent [3H]taurocholate absorption into brush-border membrane vesicles of the ileum; type: biochemical, rabbit; conditions: read-out: IC50
T1 construct: brush-border membrane vesicles from the ileum of rabbits; from tissue; host or cells: terminal ileum of male New Zealand rabbits, brush-border membrane vesicles
T1 sequence (Q28727 1-347): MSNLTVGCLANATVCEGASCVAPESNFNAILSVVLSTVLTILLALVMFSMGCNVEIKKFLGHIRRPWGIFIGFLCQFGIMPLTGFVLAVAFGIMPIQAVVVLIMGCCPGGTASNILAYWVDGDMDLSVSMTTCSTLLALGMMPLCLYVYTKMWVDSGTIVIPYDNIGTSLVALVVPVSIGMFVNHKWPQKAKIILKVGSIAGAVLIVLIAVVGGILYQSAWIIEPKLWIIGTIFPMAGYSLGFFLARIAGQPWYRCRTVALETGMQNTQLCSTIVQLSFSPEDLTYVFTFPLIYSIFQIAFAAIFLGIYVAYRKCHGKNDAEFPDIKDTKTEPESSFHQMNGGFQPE
Description: The preparation of brush-border membrane vesicles from the intestinal cells of the small intestine was carried out using the so-called Mg^2+ precipitation method. Male New Zealand rabbits (2-2.5 kg body weight) were sacrificed by intravenous injection of 0.5 ml of T-61^R. The small intestine was removed and rinsed with ice-cold physiological saline solution. The terminal 3/10 of the small intestine (measured in the oral-rectal direction, i.e. the terminal ileum, which contains the active Na^+ -dependent bile acid transport system) were used for preparation of the brush-border membrane vesicles. The intestines were frozen at -80° C. under nitrogen in plastic bags. The frozen intestines were thawed in a water bath at 30° C. in order to prepare the membrane vesicles. The mucosa was scraped off and suspended in 60 ml of ice-cold 12 mM trys/HCl buffer (pH 7.1)/300 mM mannitol, 5 mM EGTA/10 mg/l of phenylmethylsulfonyl fluoride/1 mg/l of soybean trypsin inhibitor (32 U/mg)/0.5 mg/l of bovine lung trypsin inhibitor (193 U/mg)/5 mg/l of bacitracin. After diluting to 300 ml with ice-cold distilled water, the suspension was homogenized with ice-cooling for 3 minutes at 75% of maximum power using an Ultraturrax (18 rod, IKA Werk Staufen, Federal Republic of Germany). After addition of 3 ml of 1M MgCl2 solution (final concentration 10 mM), the homogenate was allowed to stand at 0° C. for exactly 1 minute. As a result of addition of Mg^2+, the cell membranes aggregate and precipitate with the exception of the brush-border membranes. After centrifugation at 3,000×g (5,000 rpm, SS-34 rotor) for 15 minutes, the precipitate is discarded and the supernatant which contains the brush-border membranes is centrifuged at 26,700×g (15,000 rpm, SS-34 rotor) for 30 minutes. The supernatant was discarded, and the precipitate was rehomogenized in 60 ml of 12 mM tris/HCl buffer (pH 7.1)/60 mM mannitol, 5 mM EGTA using a Potter Elvejhem homogenizer (Braun Melsungen, 900 rpm, 10 strokes). After addition of 0.1 ml of 1M MgCl2 solution and an incubation time of 15 minutes at 0° C., the mixture was again centrifuged at 3,000×g for 15 minutes. The supernatant was then again centrifuged at […] (15,000 rpm, SS-34 rotor) for 30 minutes. The precipitate was taken up in 30 ml of 10 mM tris/hepes buffer (pH 7.4)/300 mM mannitol and homogeneously resuspended by 20 strokes in a Potter Elvejhem homogenizer at 1,000 rpm. After centrifugation at 48,000×g (20,000 rpm, SS-34 rotor) for 30 minutes, the precipitate was taken up in 0.5 to 2 ml of tris/hepes buffer (pH 7.4)/280 mM mannitol (final concentration 20 mg/ml) and resuspended with the aid of a tuberculin syringe using a 27 gauge needle. The vesicles were either used immediately after preparation for transport investigations or stored at -196° C. in liquid nitrogen in 4 mg portions.
The absorption of substrates into brush-border membrane vesicles was determined by means of the so-called membrane filtration technique. 10 μl of the vesicle suspension (100 μg of protein) were pipetted on the wall of a polystyrene incubation tube (11×70 mm) as a drop which contained the incubation medium together with the corresponding ligands (90 μl ). […] The incubation medium was filtered through a polyvinylidene fluoride membrane filter (SYHV LO 4NS, 0.45 μm, 4 mm .phi., Millipore, Eschborn, Federal Republic of Germany). The transport measurement was begun by mixing the vesicles with the incubation medium. […] After the desired incubation time (customarily 1 min), the transport was stopped by addition of 1 ml of ice-cold stop solution (10 mM tris/hepes, (pH 7.4)/150 mM KCl). The resulting mixture was immediately filtered off with suction in a vacuum of 25 to 35 mbar through a membrane filter made of cellulose nitrate (ME 25, 0.45 μm, 25 mm diameter, Schleicher & Schuell, Dassell, Federal Republic of Germany). The filter was subsequently washed with 5 ml of ice-cold Stop solution.

Compound | Conc. of W or a metabolite of W in bile ([1]; bile at 2 min) | Conc. of W or a metabolite of W in bile ([1]; bile at 4 min) | Conc. of W or a metabolite of W in bile ([1]; bile at 6 min) | Conc. of W or a metabolite of W in bile ([1]; bile at 8 min) | Conc. of W or a metabolite of W in bile ([1]; bile at 10 min) | Conc. of W or a metabolite of W in bile ([1]; bile at 15 min) | Conc. of W or a metabolite of W in bile ([1]; bile at 20 min) | Conc. of W or a metabolite of W in bile ([1]; bile at 30 min) | Conc. of W or a metabolite of W in bile ([1]; bile at 40 min) | Conc. of W or a metabolite of W in bile ([1]; bile at 60 min) | Conc. of W or a metabolite of W in bile ([1]; bile at 70 min) | Conc. of W or a metabolite of W in bile ([1]; bile at 80 min) | Conc. of W or a metabolite of W in bile ([1]; bile at 90 min) | Conc. of W or a metabolite of W in bile ([1]; bile at 100 min) | Conc. of W or a metabolite of W in bile ([1]; bile at 110 min) | Conc. of W or a metabolite of W in bile ([1]; bile at 120 min) | IC50 [2]
O=C(O)CCCc1ccc(N(CCCl)CCCl)cc1 [Chlorambucil, [4-(bis-N-(2'-chloroethyl)-aminophenyl)]-butyric acid, reference compound] | 1012 surface area units | 885 surface area units | 1044 surface area units | 1160 surface area units | 810 surface area units | 689 surface area units | 1481 surface area units | 704 surface area units | 511 surface area units | 620 surface area units | 1769 surface area units | 501 surface area units | 813 surface area units | 523 surface area units | 604 surface area units | 531 surface area units | –
C[C@H](CCC(=O)NCCS(=O)(=O)O)[C@H]1CC[C@H]2[C@@H]3CC[C@@H]4C[C@H](O)CC[C@]4(C)[C@H]3CC[C@]12C [Taurolithocholate, reference compound] | – | – | – | – | – | – | – | – | – | – | – | – | – | – | – | – | 12 µM
C[C@H](CCC(=O)NCCS(=O)(=O)O)[C@H]1CC[C@H]2[C@@H]3CC[C@@H]4C[C@H](OS(=O)(=O)O)CC[C@]4(C)[C@H]3CC[C@]12C [Taurolithocholate-3-sulfate, reference compound] | – | – | – | – | – | – | – | – | – | – | – | – | – | – | – | – | 245 µM
